The values below are quoted from earlier work in patent US20100152480A1 (priority 2008, published 2010).

The test system of data set [1] is gram negative bacteria (Alcaligenes faecalis, Bordetella bronchiseptica, Citrobacter freundii, Citrobacter intermedium, Enterobacter aerogenes, Escherichia …). Conditions: listed gram negative species; known from prior art.
Data set [2] relates to moulds and yeast (Aspergillus niger, Aureobasidium pullulans, Cladosporium cladosporioides, Gliocadium virens, Chaetonium globosum, Penicillium chrysogenum …). To be noted: listed moulds and yeasts; known from prior art.
For data set [3] the following is noted: 20° C.
The subject of data set [4] is gram positive bacteria (Arthrobacter oxydans, Bacillus cereus var mycoide, Bacillus subtilis, Bacillus megaterium, Clostridium perfringens, Listeria …). To be noted: listed gram positive species; known from prior art.

With “ethyl-Na-dodecanoyl-Larginate HCl [Ethyl lauroyl arginate]”, the “effectiveness against gram negative bacteria” value in data set [1] is on record as “effective”. For the same substance, the “effectiveness against moulds and yeast” value in data set [2] is listed as “effective”. The solubility in water entry in data set [3] was “greater than 247 g/kg”. In data set [4], the “effectiveness against gram positive bacteria” value is recorded as “effective”.
